According to ChEMBL document CHEMBL1127857, “Antitumor agents. 155. Synthesis and biological evaluation of 3',6,7-substituted 2-phenyl-4-quinolones as antimicrotubule agents” (J Med Chem, 1994):

Key:
DU-145 = experiment: Tested for in vitro tumor cell growth inhibition of prostate cancer cell line DU-145; format: functional; conditions: Homo sapiens
HCT-116 = experiment: Tested for in vitro tumor cell growth inhibition of colon cancer cell line HCT116; format: functional; conditions: Homo sapiens
KM-20L2 = experiment: Tested for in vitro tumor cell growth inhibition of colon cancer cell line […]; format: functional; conditions: Homo sapiens
K562 = experiment: Tested for in vitro tumor cell growth inhibition of leukemia cell line K-562; format: functional; conditions: Homo sapiens
NCI-H226 = experiment: Tested for in vitro tumor cell growth inhibition of non-small cell lung cancer cell line NCI-H226; format: functional; conditions: Homo sapiens
OVCAR-4 = experiment: Tested for in vitro tumor cell growth inhibition of ovarian cancer cell line OVCAR-4; format: functional; conditions: Homo sapiens
OVCAR-3 = experiment: Tested for in vitro tumor cell growth inhibition of ovarian cancer cell line OVCAR-3; format: functional; conditions: Homo sapiens
RXF 393 = experiment: Tested for in vitro tumor cell growth inhibition of renal cancer cell line RXF-393; format: functional; conditions: Homo sapiens
SF-295 = experiment: Tested for in vitro tumor cell growth inhibition of CNS tumor cell line SF-295; format: functional; conditions: Homo sapiens
SK-MEL-5 = experiment: Tested for in vitro tumor cell growth inhibition of melanoma cell line SK-Mel-5; format: functional; conditions: Homo sapiens
Tubulin (Bos taurus) = Tubulin (Bos taurus) (UniProt Q6B856+Q862L2+Q862F3); experiment: Inhibition of colchicine binding to tubulin was evaluated only when polymerization IC50 <=1.0 uM; format: protein assay
Tubulin = Tubulin (Bos taurus, UniProt Q6B856+Q862L2+Q862F3); experiment: Inhibition of bovine tubulin polymerization; format: functional
MDA-N = experiment: Tested for in vitro tumor cell growth inhibition of breast cancer cell line MDA-N; format: functional; conditions: Homo sapiens
SF-268 = experiment: Tested for in vitro tumor cell growth inhibition of CNS tumor cell line SF-268; format: functional; conditions: Homo sapiens

Compound | GI50 (DU-145) [µM] | GI50 (HCT-116) [µM] | GI50 (KM-20L2) [µM] | GI50 (K562) [µM] | GI50 (NCI-H226) [µM] | GI50 (OVCAR-4) [µM] | GI50 (OVCAR-3) [µM] | GI50 (RXF 393) [µM] | GI50 (SF-295) [µM] | GI50 (SK-MEL-5) [µM] | inhibition (Tubulin (Bos taurus)) [%] | IC50 (Tubulin) [µM] | GI50 (MDA-N) [µM] | GI50 (SF-268) [µM]
Oc1cc(-c2cccc(OC(F)(F)F)c2)nc2cc3c(cc12)OCO3 | 0.0457 | 0.0141 | 0.0363 | 0.0363 | 0.195 | 0.0257 | 0.0631 | 0.0407 | 0.0257 | 0.17 | 40 | 0.5 | < 0.01 | 
COc1cccc(-c2cc(O)c3cc(N4CCOCC4)ccc3n2)c1 | 0.0437 | 0.0269 | 0.0339 | 0.0246 | 0.0339 | 6.31 | 0.0199 |  | 0.049 | 0.0355 | 43 | 0.36 | 0.00832 | 0.0537
Oc1cc(-c2cccc(OC(F)(F)F)c2)nc2ccc(N3CCCC3)cc12 |  |  |  |  |  |  |  |  |  |  | 58 | 0.72 |  | 
CNc1cccc(-c2cc(O)c3cc4c(cc3n2)OCO4)c1 |  | 0.245 | 0.331 | 0.398 | 0.537 |  | 0.339 | 0.363 | 0.324 | 0.447 | 17 | 0.65 |  | 5.5
Oc1cc(-c2cccc(Br)c2)nc2cc3c(cc12)OCO3 |  | 3.39 | 3.09 | 3.47 | 3.8 | > 100 | 4.27 | 2.4 | 0.331 | 4.37 | 26 | 0.53 |  | 3.02
COc1cccc(-c2cc(O)c3cc(Cl)ccc3n2)c1 |  |  |  |  |  |  |  |  |  |  | 16 | 0.7 |  | 
COc1cccc(-c2cc(O)c3cc(N)ccc3n2)c1 |  |  | 3.47 |  |  |  |  |  |  |  |  | 8.7 |  | 
CC(=O)Nc1ccc2nc(-c3cccc(Cl)c3)cc(O)c2c1 |  |  |  |  |  | > 100 |  |  |  |  |  | 2.3 |  | 
Oc1cc(-c2cccc(F)c2)nc2cc3c(cc12)OCO3 |  | 0.219 |  | 0.339 | 0.955 |  | 0.288 |  | 0.141 | 0.269 | 51 | 0.53 |  | 0.661
Oc1cc(-c2cccc(OCc3ccccc3)c2)nc2cc3c(cc12)OCO3 | 1.1 | 0.389 | 0.224 | 0.363 | 0.229 |  | 0.245 | 0.407 | 0.447 | 0.282 | 26 | 0.45 | 0.145 | 12.9
CN(C)c1cccc(-c2cc(O)c3cc4c(cc3n2)OCO4)c1 |  |  |  |  |  |  |  |  |  |  | 29 | 0.7 |  | 
COc1ccc(CCc2cc(OC)c(OC)c(OC)c2)cc1O |  |  |  |  |  |  |  |  |  |  |  | 0.63 |  | 
Oc1cc(-c2ccccc2)nc2cc3c(cc12)OCO3 |  |  |  |  |  |  |  |  |  |  | 26 | 0.63 |  | 
Nc1cccc(-c2cc(O)c3cc4c(cc3n2)OCO4)c1 |  | 0.479 | 0.708 | 0.891 | 2.19 | 38.9 |  | 0.603 | 2.4 | 0.933 | 16 | 0.73 |  | 0.759
COc1cccc(-c2cc(O)c3cc(N(C)C)ccc3n2)c1 | 0.0347 |  | 0.00457 | 0.00891 | 0.0447 | 5.5 | 0.0151 | 0.0186 | 0.0155 | 0.0257 | 14 | 0.38 | 0.0017 | 0.0437
Oc1cccc(-c2cc(O)c3cc4c(cc3n2)OCO4)c1 |  | 1.82 | 3.31 | 0.724 |  |  |  |  | 5.5 | 1.48 | 26 | 0.47 |  | 2.29
COc1cccc(-c2cc(O)c3cc(NC(C)=O)ccc3n2)c1 |  |  |  |  |  |  |  |  |  |  |  | 2.1 |  | 5.5
COc1cccc(-c2cc(O)c3cc(N4CCN(C)CC4)ccc3n2)c1 | 2.51 | 0.437 | 1.51 | 0.537 | 1.51 | > 10 |  | 0.457 | 1.82 | 0.912 |  | 14 | 0.2 | 1.86
COc1cccc(-c2cc(O)c3cc4c(cc3n2)OCO4)c1 |  |  |  |  |  |  |  |  |  |  | 39 | 0.57 |  | 
CCOc1cccc(-c2cc(O)c3cc4c(cc3n2)OCO4)c1 | 0.251 | 0.174 | 0.182 | 0.0447 | 0.324 |  | 0.166 | 0.275 | 0.0646 | 0.191 | 40 | 0.47 | 0.0178 | 0.269
Nc1ccc2nc(-c3cccc(C(F)(F)F)c3)cc(O)c2c1 | 43.7 | 52.5 | 34.7 |  |  |  |  |  |  |  |  | > 40 |  | 
Oc1cc(-c2cccc(Cl)c2)nc2cc3c(cc12)OCO3 |  |  | 0.269 |  |  | > 75.9 |  |  |  | 0.209 | 45 | 0.37 |  | 
COc1cc([C@@H]2c3cc4c(cc3[C@H](O)[C@H]3COC(=O)[C@H]23)OCO4)cc(OC)c1OC |  |  |  |  |  |  |  |  |  |  | 84 |  |  | 
COc1cccc(-c2cc(O)c3cc(N4CCCC4)ccc3n2)c1 | < 0.001 | < 0.001 | < 0.001 | < 0.001 | < 0.001 | 2 | < 0.001 | < 0.001 | < 0.001 | < 0.001 |  |  | < 0.001 | < 0.001
Oc1cc(-c2cccc(C(F)(F)F)c2)nc2cc3c(cc12)OCO3 |  |  | 1.38 |  |  |  |  |  |  |  | 5 | 0.82 |  | 
CC(=O)Nc1ccc2nc(-c3cccc(F)c3)cc(O)c2c1 |  |  |  |  |  |  |  |  | 38.9 |  |  |  |  | 25.7
Nc1ccc2nc(-c3cccc(Cl)c3)cc(O)c2c1 |  |  | 3.16 |  |  | > 100 |  |  |  |  |  | 6.1 |  | 
